How the values were obtained:
[1] = target: Receptor-type tyrosine-protein kinase FLT3 (Homo sapiens, UniProt P36888, ITD)
[2] = target: CDK2/Cyclin A1 (Homo sapiens, UniProt P24941); format: protein-complex assay
Description: Inhibition of CDK2/Cyclin A1 (unknown origin) at 1 uM using histone H1 as substrate preincubated for 20 mins followed by 33P-ATP addition and measured after 2 hrs by filter binding method

[3] = test system: MV4-11; test: cells; conditions: Homo sapiens, MV4-11, 72 h
Description: Antiproliferative activity against human MV4-11 cells assessed as cell death measured after 72 hrs by resazurin dye based assay

[4] = test system: K562; test: cells; conditions: Homo sapiens, K562, 72 h
Description: Antiproliferative activity against human K562 cells assessed as cell death measured after 72 hrs by resazurin dye based assay

Chain of Receptor-type tyrosine-protein kinase FLT3 (P36888 whole entry, looked up, change not shown): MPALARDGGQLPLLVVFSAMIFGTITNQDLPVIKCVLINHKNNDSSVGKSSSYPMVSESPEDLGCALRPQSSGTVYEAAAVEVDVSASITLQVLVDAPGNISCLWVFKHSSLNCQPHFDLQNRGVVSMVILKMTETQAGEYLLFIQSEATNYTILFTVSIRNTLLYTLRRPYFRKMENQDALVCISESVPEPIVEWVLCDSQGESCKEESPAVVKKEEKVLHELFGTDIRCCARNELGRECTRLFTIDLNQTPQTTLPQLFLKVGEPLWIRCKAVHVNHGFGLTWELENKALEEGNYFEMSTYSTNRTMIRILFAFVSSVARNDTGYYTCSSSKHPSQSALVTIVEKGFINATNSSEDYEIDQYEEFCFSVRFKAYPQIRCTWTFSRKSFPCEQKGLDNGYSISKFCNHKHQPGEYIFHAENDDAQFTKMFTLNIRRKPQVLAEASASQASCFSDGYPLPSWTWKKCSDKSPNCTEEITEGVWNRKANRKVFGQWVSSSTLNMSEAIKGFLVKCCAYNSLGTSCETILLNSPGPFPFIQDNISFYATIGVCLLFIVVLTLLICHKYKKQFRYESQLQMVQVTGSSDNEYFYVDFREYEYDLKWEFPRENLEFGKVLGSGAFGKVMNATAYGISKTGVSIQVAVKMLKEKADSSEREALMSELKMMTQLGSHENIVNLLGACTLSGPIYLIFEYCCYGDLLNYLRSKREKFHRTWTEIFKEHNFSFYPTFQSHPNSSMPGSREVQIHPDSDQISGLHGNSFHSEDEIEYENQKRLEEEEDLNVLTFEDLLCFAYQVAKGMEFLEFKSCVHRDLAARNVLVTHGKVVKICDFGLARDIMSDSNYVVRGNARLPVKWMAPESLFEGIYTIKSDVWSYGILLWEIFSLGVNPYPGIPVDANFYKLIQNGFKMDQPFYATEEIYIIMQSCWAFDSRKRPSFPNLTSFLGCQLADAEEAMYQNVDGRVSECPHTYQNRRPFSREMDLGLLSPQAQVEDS

Row | SMILES | IC50 [1] [nM] | IC50 [2] [nM] | IC50 [3] [nM] | IC50 [4] [nM]
1 | Fc1ccc(-c2cc(-c3c[nH]nc3C(F)(F)F)nc3ccc4[nH]ncc4c23)cc1Cl | > 20000 | 1270 | 25700 | 65900
2 | Fc1n[nH]c2ccc3nc(-c4c[nH]nc4C(F)(F)F)c4c(c3c12)CCCC4 | 31 | 272 | 660 | 31200
3 | FC(F)(F)c1n[nH]cc1-c1nc2c(C(F)(F)F)cc3[nH]ncc3c2c2c1CCCC2 | 107 | 107 | 180 | 11100
4 | CN1CCN(CC#Cc2n[nH]c3ccc4nc(-c5c[nH]nc5C(F)(F)F)c5c(c4c23)CCCC5)CC1 | 18 | 10000 | 459 | 24800
5 | FC(F)(F)c1n[nH]cc1-c1nc2ccc3[nH]nc(I)c3c2c2c1CCCC2 | 21 | 63 | 1260 | 40100
6 | O=C(O)C1CCc2c(c(-c3c[nH]nc3C(F)(F)F)nc3ccc4[nH]ncc4c23)C1 (configuration not stated) | 563 | 1440 | 20000 | > 100000
7 | CCc1cnn2c(NCc3ccc[n+]([O-])c3)cc(N3CCCC[C@H]3CCO)nc12 [DINACICLIB] | > 2000 |  | 7 | 13
8 | NC1CCc2c(c(-c3c[nH]nc3C(F)(F)F)nc3ccc4[nH]ncc4c23)C1 (configuration not stated) | 3140 | 5970 | 3500 | 66600
9 | FC(F)(F)c1n[nH]cc1-c1nc2ccc3[nH]nc(Cl)c3c2c2c1CCCCC2 | 34 | 1720 | 2010 | > 100000
10 | FC(F)(F)c1n[nH]cc1-c1nc2ccc3[nH]nc(Br)c3c2c2c1CCCC2 | 3 | 325 | 544 | 28900
11 | FC(F)(F)c1n[nH]cc1-c1cc(-c2ccncc2)c2c(ccc3[nH]ncc32)n1 | 2990 | 823 | 3620 | 76800
12 | FC(F)(F)c1n[nH]cc1-c1nc2ccc3[nH]ncc3c2c2c1CCCCC2 | 3 | 31 | 76 | 25100
13 | CCOC(=O)C1CCc2c(c(-c3c[nH]nc3C(F)(F)F)nc3ccc4[nH]ncc4c23)C1 (configuration not stated) | 118 | 111 | 37 | 6700
14 | FC(F)(F)c1n[nH]cc1-c1nc2c(Br)cc3[nH]ncc3c2c2c1CCCC2 | > 20000 | 10800 | 36300 | > 100000
15 | OC1CCc2c(c(-c3c[nH]nc3C(F)(F)F)nc3ccc4[nH]ncc4c23)C1 (configuration not stated) | 16 | 20 | 32 | 22500
16 | [O-][S+]1CCc2c(c(-c3c[nH]nc3C(F)(F)F)nc3ccc4[nH]ncc4c23)C1 (configuration not stated) | 17 | 40 | 24 | 8600
17 | FC(F)(F)c1n[nH]cc1-c1nc2ccc3[nH]ncc3c2c2c1CC(C(F)(F)F)CC2 (configuration not stated) | 126 | 139 | 14 | 8100
18 | Cc1n[nH]c2ccc3nc(-c4c[nH]nc4C(F)(F)F)c4c(c3c12)CCC(N)C4 (configuration not stated) | 211 | 640 | 319 | 53800
19 | Cc1n[nH]cc1-c1nc2c(F)cc3[nH]ncc3c2c2c1CCCC2 | 7 | 17 | 113 | 3770
20 | c1n[nH]cc1-c1nc2ccc3[nH]ncc3c2c2c1CCCC2 | 90 | 72 | 330 | 3930
21 | CC(C)c1nn(C)cc1-c1nc2ccc3[nH]ncc3c2c2c1CCCC2 | 3840 | 1450 | 1400 | 77500
22 | CN1CCN(C2CCc3c(c(-c4c[nH]nc4C(F)(F)F)nc4ccc5[nH]ncc5c34)C2)CC1 (configuration not stated) | 141 | 266 | 440 | 19100
23 | Cn1cc(-c2nc3ccc4[nH]ncc4c3c3c2CCCC3)c(C2CC2)n1 | 3660 | 1130 | 1300 | 33800
24 | Fc1cc(F)cc(-c2cc(-c3c[nH]nc3C(F)(F)F)nc3ccc4[nH]ncc4c23)c1 | > 20000 | 469 | 52500 | > 100000

Row | SMILES | IC50 [1] [nM] | IC50 [2] [nM] | IC50 [3] [nM] | IC50 [4] [nM]
25 | FC(F)(F)c1n[nH]cc1-c1nc2c(N3CCCCC3)cc3[nH]ncc3c2c2c1CCCC2 | 1250 | 5740 | 2390 | 20300
26 | CC(C)c1n[nH]cc1-c1nc2ccc3[nH]ncc3c2c2c1CCCC2 | 212 | 88 | 610 | 11100
27 | Cc1n[nH]c2ccc3nc(-c4c[nH]nc4C(F)(F)F)c4c(c3c12)CCC(C#N)C4 (configuration not stated) | 15 | 333 | 12 | 9940
28 | Cn1ncc2c3c4c(c(-c5c[nH]nc5C(F)(F)F)nc3ccc21)CCCC4 | 1690 | 3260 | 2420 | 44600
29 | NCC1CCc2c(c(-c3c[nH]nc3C(F)(F)F)nc3c(F)cc4[nH]ncc4c23)C1 (configuration not stated) | 19 | 58 | 740 | 16000
30 | FC(F)(F)c1n[nH]cc1-c1nc2ccc3sncc3c2c2c1CCCC2 | 8490 | 5160 | 7350 | 56800
31 | Cn1cc(-c2nc3ccc4[nH]ncc4c3c3c2CCCC3)c(C(F)(F)F)n1 | 549 | 556 | 500 | 10400
32 | FC(F)(F)c1n[nH]cc1-c1nc2ccc3[nH]nc(Cl)c3c2c2c1CCCC2 | 41 | 2320 | 2490 | > 100000
33 | FC(F)(F)c1n[nH]cc1-c1nc2ccc3[nH]nnc3c2c2c1CCCC2 | 408 | 1260 | 400 | 87800
34 | Cc1n[nH]cc1-c1nc2ccc3[nH]nc(C)c3c2c2c1CCCC2 | 42 | 717 | 687 | 21100
35 | FC(F)(F)c1ccc(-c2cc(-c3c[nH]nc3C(F)(F)F)nc3ccc4[nH]ncc4c23)cc1 | > 20000 | 8240 | > 100000 | > 100000
36 | FC(F)(F)c1n[nH]cc1-c1cc(C2CC2)c2c(ccc3[nH]ncc32)n1 | 368 | 87 | 980 | 78900
37 | c1[nH]nnc1-c1nc2ccc3[nH]ncc3c2c2c1CCCC2 | 132 | 180 | 600 | 9800
38 | CC(=O)NC1CCc2c(c(-c3c[nH]nc3C(F)(F)F)nc3ccc4[nH]ncc4c23)C1 (configuration not stated) | 20 | 320 | 920 | > 100000
39 | N#CC1CCc2c(c(-c3c[nH]nc3C(F)(F)F)nc3c(F)cc4[nH]ncc4c23)C1 (configuration not stated) | 86 | 111 | 123 | 8810
40 | O=S1(=O)CCc2c(c(-c3c[nH]nc3C(F)(F)F)nc3ccc4[nH]ncc4c23)C1 | 799 | 231 | 765 | > 100000
41 | CCc1c(C)c(-c2c[nH]nc2C(F)(F)F)nc2ccc3[nH]ncc3c12 | 4 | 46 | 84 | 39100
42 | Nc1ccc(-c2nc3ccc4[nH]ncc4c3c3c2CCCC3)cc1C(F)(F)F | 3120 | 237 | 2940 | 21900
43 | Cc1n[nH]c(C)c1-c1nc2ccc3[nH]ncc3c2c2c1CCCC2 | 194 | 107 | 514 | 8730
44 | FC(F)(F)c1n[nH]cc1-c1nc2ccc3[nH]ncc3c2c2c1CC(N1CCOCC1)CC2 (configuration not stated) | 16 | 901 | 550 | 33000
45 | Cc1noc(C)c1-c1nc2ccc3[nH]ncc3c2c2c1CCCC2 | 2020 | 555 | 880 | 30800
46 | N#Cc1n[nH]c2ccc3nc(-c4c[nH]nc4C(F)(F)F)c4c(c3c12)CCCC4 | > 20000 | > 20000 | > 100000 | > 100000
47 | FC(F)(F)c1n[nH]cc1-c1nc2ccc3[nH]ncc3c2c2c1COCC2 | 109 | 190 | 92 | 9250
